# Source: the supplement of paper PMC11208160
# Assay: recombinant barcode read abundance after kanamycin selection (control-corrected) (log10(CPM+1)); higher = more efficient recombination; sequences stand for … in AGTGCAGAGAAAATCGGCCAGTTTTCTCTGCCTGCAGTCCGCATGCCGT…ATTTATGCAGCGGACTGCCTTTCTCCCAAAGTGATAAACCGGACAGTATCATGGACCGGTTTTCCCGGTAATCCGTATTTGCAAGGTTGGTTTCACT; site = the 11-nt target
# Method: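 Same pooled E. coli target screen (IS621 bridge recombinase, kanamycin selection, control-corrected CPM, mean of 2 biological replicates). Here the two core-binding nucleotides of the LTG and RTG of the bridge RNA target-binding loop are mutated. Target and donor CT cores are held constant, and the other 9 guide positions match the target. The target is read from the library oligo sequence. Molecule = full bridge RNA written as DNA: nt 1-80 from the library oligo, rest WT scaffold.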
row,Sequence,recombinant barcode read abundance (log10)
1,"AGGCGGTCTTGGGTTCTAACCTGTTGCTTAG [AGGCGGTCTAA_LTGcore_CT_RTGcore_CT] (site AGGCGGTCTAA) (LTG core: CT, RTG core: CT)",2.29
2,"AGGCGGTCTTGGGTTCTAACCTGTTGCTTAT [AGGCGGTCTAA_LTGcore_CT_RTGcore_AT] (site AGGCGGTCTAA) (LTG core: CT, RTG core: AT)",0.144
3,"AGGCGGTCTTGGGTTCTAACCTGTTGCTTCT [AGGCGGTCTAA_LTGcore_CT_RTGcore_AG] (site AGGCGGTCTAA) (LTG core: CT, RTG core: AG)",0.284
4,"AGGCGGTCTTGGGTTCTAACCTGTTGCTTTC [AGGCGGTCTAA_LTGcore_CT_RTGcore_GA] (site AGGCGGTCTAA) (LTG core: CT, RTG core: GA)",0.389
5,"AGGCGGTCTTGGGTTCTAACCTGTTGCTTTG [AGGCGGTCTAA_LTGcore_CT_RTGcore_CA] (site AGGCGGTCTAA) (LTG core: CT, RTG core: CA)",0.0581
6,"AGGCGGTGCTGGGTTCTAACCTGTTGCTTGC [AGGCGGTCTAA_LTGcore_GC_RTGcore_GC] (site AGGCGGTCTAA) (LTG core: GC, RTG core: GC)",0.104
7,"AGGCGGTGGTGGGTTCTAACCTGTTGCTTAG [AGGCGGTCTAA_LTGcore_GG_RTGcore_CT] (site AGGCGGTCTAA) (LTG core: GG, RTG core: CT)",0.074
8,"AGGCGGTGGTGGGTTCTAACCTGTTGCTTCC [AGGCGGTCTAA_LTGcore_GG_RTGcore_GG] (site AGGCGGTCTAA) (LTG core: GG, RTG core: GG)",0.0144
9,"AGGCGGTTGTGGGTTCTAACCTGTTGCTTCA [AGGCGGTCTAA_LTGcore_TG_RTGcore_TG] (site AGGCGGTCTAA) (LTG core: TG, RTG core: TG)",0.0951
10,"AGTCTTAAATGGGTTCTAACCTGTTGCCATT [AGTCTTACTTG_LTGcore_AA_RTGcore_AA] (site AGTCTTACTTG) (LTG core: AA, RTG core: AA)",0.0761
11,"AGTCTTACATGGGTTCTAACCTGTTGCCATG [AGTCTTACTTG_LTGcore_CA_RTGcore_CA] (site AGTCTTACTTG) (LTG core: CA, RTG core: CA)",0.21
12,"AGTCTTACGTGGGTTCTAACCTGTTGCCACG [AGTCTTACTTG_LTGcore_CG_RTGcore_CG] (site AGTCTTACTTG) (LTG core: CG, RTG core: CG)",0.213
13,"AGTCTTACTTGGGTTCTAACCTGTTGCCAAG [AGTCTTACTTG_LTGcore_CT_RTGcore_CT] (site AGTCTTACTTG) (LTG core: CT, RTG core: CT)",0.0171
14,"AGTCTTACTTGGGTTCTAACCTGTTGCCAAT [AGTCTTACTTG_LTGcore_CT_RTGcore_AT] (site AGTCTTACTTG) (LTG core: CT, RTG core: AT)",0.144
15,"AGTCTTACTTGGGTTCTAACCTGTTGCCACC [AGTCTTACTTG_LTGcore_CT_RTGcore_GG] (site AGTCTTACTTG) (LTG core: CT, RTG core: GG)",0.0199
16,"AGTCTTACTTGGGTTCTAACCTGTTGCCAGA [AGTCTTACTTG_LTGcore_CT_RTGcore_TC] (site AGTCTTACTTG) (LTG core: CT, RTG core: TC)",0.0445
17,"AGTCTTACTTGGGTTCTAACCTGTTGCCATA [AGTCTTACTTG_LTGcore_CT_RTGcore_TA] (site AGTCTTACTTG) (LTG core: CT, RTG core: TA)",0.136
18,"AGTCTTACTTGGGTTCTAACCTGTTGCCATC [AGTCTTACTTG_LTGcore_CT_RTGcore_GA] (site AGTCTTACTTG) (LTG core: CT, RTG core: GA)",0.155
19,"AGTCTTACTTGGGTTCTAACCTGTTGCCATT [AGTCTTACTTG_LTGcore_CT_RTGcore_AA] (site AGTCTTACTTG) (LTG core: CT, RTG core: AA)",0.196
